Measured values from patent US20250290915A1, “METHOD FOR PREDICTING RESPONSIVENESS TO THERAPY” (CANCERTAIN LIMITED, priority 2022, published 2025).

Tests used:
Type in all cases: cell-based, human
[1] = test system: Circulating Tumour Cells (CTCs, EpCam+CD45−) from a patient with stage II synovial sarcoma; experiment: Drug response score assay (RealTime-Glo MT / CellTox Green, PCL scaffold) on CTCs from blood, Example 1; parameters: key to Drug response score, conc. 1 / Drug response score, conc. 2 / Drug response score, conc. 3 / Drug response score, conc. 4: normalized drug response metric per Gupta et al. 2020
Method: (§1) CD45^+ cells and circulating tumour cells (CTCs) were isolated from a blood sample provided by each subject.
(§2) CD45 separation was performed by adding human CD45 microbeads (50 μl/ml blood), incubating for 15 minutes at 4° C. and then processing using an AutoMACS machine. This separates the blood sample into CD45^+ and CD45^−cells in 2 separate falcons. The falcon tubes are then centrifuged at 1200 rpm for 5 minutes.
(§3) The supernatant was removed from the CD45^−falcon tube, and the CD45^−cells contacted with 100 μl of FcR block and 100 μl of CD326 (EpCAM) MicroBeads, followed by incubation at […] 4° C. for 30 minutes. The CD45^−cells were then processed using an AutoMACS machine to separate the EpCAM positive and negative cells into 2 separate falcon tubes. The EpCAM-cells were discarded. The supernatant was removed from the EpCAM^+ cells, and the cells resuspended in DMEM with 2 μl Cell Tox, 2 μl MT and 2 μl MT. 20 μl of the resuspended pellet was then added to all sample wells excluding a blank. After all wells are added to, a cell count was conducted on the […] to determine the number of circulating tumour cells (CTCs).
(§4) The different cell types were each divided equally into populations, depending on the number of drugs/concentrations to be tested and plated on a cell-culture plate pre-coated with a scaffold of polycaprolactone (PCL) electrospun fibres and incubated at 37° C., 5% CO2, for 5 to (typically 10) minutes to facilitate cell attachment. After attachment, an initial imaging step was carried out using the RealTime-Glo™ MT assay from Promega (Catalogue No. G9711)) and the CellTox™ Green Cytotoxicity Assay (Promega, Catalogue No. G8741), carried out according to manufacturer's instructions. Following this initial imagining, the immunotherapeutic and/or chemotherapeutic agents were added to the cell populations as indicated below. After 10 minutes, the imagining step was repeated. The cell populations were then incubated at 37° C., 5% CO2 for 48 hours. The imaging step was then repeated. The cell populations were then re-dosed with the same immunotherapeutic and/or chemotherapeutic agents as indicated below, and incubated at 37° C., 5% CO2 for a further 48 hours. After this second 48 hour incubation, the imagining step was repeated for a final time.
(§5) At the end of this culture period, dose response scores were calculated using a normalized drug response metric as described in Gupta et al. (Communications Biology volume 3, Article number: 42 (2020), https://doi.org/10.1038/s42003-020-0765-z). The start readout for a given immunotherapeutic or chemotherapeutic agent at a given concentration was the to readout for said immunotherapeutic or chemotherapeutic agent at a specified concentration. The end readout for a given immunotherapeutic or chemotherapeutic agent at a given concentration was the final timepoint reading (t96h) for said immunotherapeutic or chemotherapeutic agent at a specified concentration.
(§6) The positive control start readout for a given drug/concentration was the to readout for the corresponding drug at a specified concentration. The positive control end readout for the corresponding drug at a specified concentration was the final timepoint reading (t96h) for the corresponding blank well.
(§7) The negative control start and end readouts for a given immunotherapeutic or chemotherapeutic agent at a given concentration were the to and final timepoint reading (t96h) respectively for blank cell or blank immuno cell well respectively.
(§8) The sensitivity or resistance of a subject's cancer to a given immunotherapeutic or chemotherapeutic agent was determined based on the calculated drug response score as shown in Table 2.
Blood samples from a patient with stage II synovial sarcoma (suspected spindle cell tumour) were received and tested using a 6 drug panel.
Chemotherapeutic agents were tested as in Table 3.

[2] = test system: Circulating Tumour Cells (CTCs) from a patient with renal cancer; experiment: Drug response score assay on CTCs (with CD45+ cells for immunotherapy) from blood, Example 7; parameters: key to Drug response score, conc. 1 / Drug response score, conc. 2 / Drug response score, conc. 3 / Drug response score, conc. 4: normalized drug response metric per Gupta et al. 2020
Method: as §1, §2
(§9) The supernatant was removed from the CD45^+falcon tube, and the cells resuspended in DMEM with 2 μl Cell Tox, 2 μl MT and 2 μl MT. 20 μl of the resuspended CD45^+ cells was then plated in each well which will contain an immunotherapy treatment.
as §3, §4, §5, §6, §7
(§10) The sensitivity or resistance of a subject's cancer to a given immunotherapeutic or chemotherapeutic agent was determined based on the calculated drug response score as shown in Table 2. […]

[3] = test system: Circulating Tumour Cells (CTCs) from a patient with head and neck cancer (squamous cell carcinoma); experiment: Drug response score assay on CTCs from blood, Example 6; conditions: for Drug response score, conc. 1: conc. 1: Ifos 0.125 μg/ml, Gemcit 2 μg/ml, Doxo 10 ng/ml, Etop 1 μg/ml, Metho 0.5 μg/ml, Capecit 200 μg/ml, Vinor 20 μg/ml; for Drug response score, conc. 1 / Drug response score, conc. 2 / Drug response score, conc. 3 / Drug response score, conc. 4: CTCs, t96h; for Drug response score, conc. 2: conc. 2: Ifos 0.25 μg/ml, Gemcit 10 μg/ml, Doxo 30 ng/ml, Etop 4 μg/ml, Metho 1 μg/ml, Capecit 300 μg/ml, Vinor 40 μg/ml; for Drug response score, conc. 3: conc. 3: Ifos 5 μg/ml, Gemcit 20 μg/ml, Doxo 90 ng/ml, Etop 20 μg/ml, Metho 2 μg/ml, Capecit 400 μg/ml, Vinor 80 μg/ml; for Drug response score, conc. 4: conc. 4: Ifos 10 μg/ml, Gemcit 40 μg/ml, Doxo 270 ng/ml, Etop 100 μg/ml, Metho 4 μg/ml, Capecit 600 μg/ml, Vinor 200 μg/ml; for effectiveness on Circulating Tumour Cells under laboratory conditions / Drug sensitivity as calculated by the assay (interpretation of Drug Response Scores): head and neck cancer CTCs; for Drug sensitivity as calculated by the assay (interpretation of Drug Response Scores): Table 20
Method: as §1, §2, §3, §4, §5, §6, §7, §8
Blood samples from a patient with head and neck cancer (squamous cell carcinoma) were received on 11 Mar. 2022 and tested using a 7 drug panel.

[4] = test system: Circulating Tumour Cells (CTCs) from a patient with lung cancer (adenocarcinoma); experiment: Drug response score assay on CTCs (with CD45+ cells for immunotherapy) from blood, Example 5; conditions: lung cancer CTCs; for Drug sensitivity as calculated by the assay (interpretation of Drug Response Scores): Table 17
Method: as §1, §2, §9, §3, §4, §5, §6, §7, §10

[5] = test system: Circulating Tumour Cells (CTCs) from a patient with colon cancer; experiment: Drug response score assay on CTCs from blood, Example 2
Method: as §1, §2, §3, §4, §5, §6, §7, §8
Blood samples from a patient with colon cancer were received on 3 Mar. 2022 and tested using a 1 drug panel.

[6] = test system: Circulating Tumour Cells (CTCs) from a patient with colon cancer (sigmoid colon cancer); experiment: Drug response score assay on CTCs from blood, Example 8; parameters: key to Drug response score, conc. 1 / Drug response score, conc. 2 / Drug response score, conc. 3 / Drug response score, conc. 4: normalized drug response metric (Gupta et al. 2020)
Method: as §1, §2, §3
as §4, with “After” for “The different cell types were each divided equally into populations, depending on the number of drugs/concentrations to be tested and plated on a cell-culture plate pre-coated with a scaffold of polycaprolactone (PCL) electrospun fibres and incubated at 37° C., 5% CO2, for 5 to (typically 10) minutes to facilitate cell attachment. After”
as §5, §6, §7, §8
Blood samples from a patient with colon cancer (sigmoid colon cancer) were received on 8 Mar. 2022 and tested using a 9 drug panel.
Chemotherapeutic agents were tested as in Table 24.

Nc1ccn([C@@H]2O[C@H](CO)[C@@H](O)C2(F)F)c(=O)n1 [Gemcitabine]
Drug response score, conc. 1 ([1]; conc. 1: Doxo 10 ng/ml, Ifos 0.125 μg/ml, Gemcit 2 μg/ml, Doce 0.02 μg/ml, Carbo 2 μg/ml, Dacarb 1.5 μg/ml, CTCs, t96h, re-dosed at 48 h): 0.9382
Drug response score, conc. 2 ([1]; conc. 2: Doxo 30 ng/ml, Ifos 0.25 μg/ml, Gemcit 10 μg/ml, Doce 0.2 μg/ml, Carbo 5 μg/ml, Dacarb 3 μg/ml, CTCs, t96h): 0.4695
Drug response score, conc. 3 ([1]; conc. 3: Doxo 90 ng/ml, Ifos 5 μg/ml, Gemcit 20 μg/ml, Doce 2 μg/ml, Carbo 10 μg/ml, Dacarb 6 μg/ml, CTCs, t96h): 0.5149
Drug response score, conc. 4 ([1]; conc. 4: Doxo 270 ng/ml, Ifos 10 μg/ml, Gemcit 40 μg/ml, Doce 10 μg/ml, Carbo 20 μg/ml, Dacarb 12 μg/ml, CTCs, t96h): 0.4075
Drug sensitivity as calculated by the assay (interpretation of Drug Response Scores) ([1]; synovial sarcoma CTCs, Table 5): Sensitive (S+)
Drug response score, conc. 1 ([2]; conc. 1: Pembr 20 μg/ml (CTCs + CD45+ cells), Docetax 0.02 μg/ml, Gemcit 2 μg/ml, Topo 5 μg/ml, Etop 1 μg/ml, Eribul 5 μg/ml (CTCs), t96h): −0.1637
Drug response score, conc. 2 ([2]; conc. 2: Pembr 40 μg/ml (CTCs + CD45+ cells), Docetax 0.2 μg/ml, Gemcit 10 μg/ml, Topo 10 μg/ml, Etop 4 μg/ml, Eribul 10 μg/ml (CTCs), t96h): 0.0725
Drug response score, conc. 3 ([2]; conc. 3: Pembr 100 μg/ml (CTCs + CD45+ cells), Docetax 2 μg/ml, Gemcit 20 μg/ml, Topo 50 μg/ml, Etop 20 μg/ml, Eribul 20 μg/ml (CTCs), t96h): −0.3154
Drug response score, conc. 4 ([2]; conc. 4: Pembr 160 μg/ml (CTCs + CD45+ cells), Docetax 10 μg/ml, Gemcit 40 μg/ml, Topo 100 μg/ml, Etop 100 μg/ml, Eribul 40 μg/ml (CTCs), t96h): −0.0871
effectiveness on Circulating Tumour Cells under laboratory conditions ([2]; renal cancer CTCs): Sensitive S++
Drug sensitivity as calculated by the assay (interpretation of Drug Response Scores) ([2]; renal cancer CTCs, Table 23): Sensitive (S++)
Drug response score, conc. 1 [3]: 0.9091
Drug response score, conc. 2 [3]: 0.8443
Drug response score, conc. 3 [3]: 0.6925
Drug response score, conc. 4 [3]: 0.3157
effectiveness on Circulating Tumour Cells under laboratory conditions [3]: Sensitive S+
Drug sensitivity as calculated by the assay (interpretation of Drug Response Scores) [3]: Sensitive (S+)
effectiveness on Circulating Tumour Cells (CTCs) under laboratory conditions [4]: marginally more effective than other agents
Drug sensitivity as calculated by the assay (interpretation of Drug Response Scores) [4]: S++

N.N.[Cl][Pt][Cl] [Cisplatin]
Drug response score, conc. 1 ([5]; Cisplatin 2 μg/ml, CTCs, t96h): 2.719
Drug response score, conc. 2 ([5]; Cisplatin 4 μg/ml, CTCs, t96h): 2.874
Drug response score, conc. 3 ([5]; Cisplatin 10 μg/ml, CTCs, t96h): 3.012
Drug response score, conc. 4 ([5]; Cisplatin 20 μg/ml, CTCs, t96h): 3.259
effectiveness on Circulating Tumour Cells under laboratory conditions ([5]; colon cancer CTCs): not effective
Drug sensitivity as calculated by the assay (interpretation of Drug Response Scores) ([5]; colon cancer CTCs, Table 8): Resistant

CCC1=C[C@@H]2CN(C1)Cc1c([nH]c3ccccc13)[C@@](C(=O)OC)(c1cc3c(cc1OC)N(C)[C@H]1[C@@](O)(C(=O)OC)[C@H](OC(C)=O)[C@]4(CC)C=CCN5CC[C@]31[C@@H]54)C2 [Vinorelbine]
Drug response score, conc. 1 ([6]; conc. 1 of each drug as in Table 24, CTCs, t96h): 0.0721
Drug response score, conc. 2 ([6]; conc. 2 of each drug as in Table 24, CTCs, t96h): −0.6648
Drug response score, conc. 3 ([6]; conc. 3 of each drug as in Table 24, CTCs, t96h): 0.2340
Drug response score, conc. 4 ([6]; conc. 4 of each drug as in Table 24, CTCs, t96h): −0.5738
Drug sensitivity as calculated by the assay (interpretation of Drug Response Scores) ([6]; sigmoid colon cancer CTCs, Table 26): Sensitive (S+)
Drug response score, conc. 1 [3]: 0.6102
Drug response score, conc. 2 [3]: 0.9691
Drug response score, conc. 3 [3]: 0.4733
Drug response score, conc. 4 [3]: 0.8073
effectiveness on Circulating Tumour Cells under laboratory conditions [3]: Sensitive S+
Drug sensitivity as calculated by the assay (interpretation of Drug Response Scores) [3]: Sensitive (S+)
Drug sensitivity as calculated by the assay (interpretation of Drug Response Scores) [4]: S++
